These are literature values, as cited in US20130267590A1, “RETIGABINE COMPOSITIONS” (Dr. Reddy's Laboratories Limited, priority 2011, published 2013).

Structures can show the parent of a compound that is named as a salt.

Data set [1] concerns KCNQ (Kv7.2 to 7.5) family of ion channels. Conditions: in vitro.

As to `CCOC(=O)Nc1ccc(NCc2ccc(F)cc2)cc1N` [dihydrochloride salt of retigabine], the storage stability entry (medium to long-term storage at −18° C.) is “unstable”.

Regarding `CCOC(=O)Nc1ccc(NCc2ccc(F)cc2)cc1N` [retigabine, ethyl 2-amino-4-(4-fluorobenzylamino) phenylcarbamate], the “effect on transmembrane potassium currents mediated by KCNQ channels” value in data set [1] was “enhances transmembrane potassium currents”. For the same compound, the oxidation stability entry (contact with air) is “oxidize upon contact with air”.
